One compound from US20100003217A1, “Compounds and Pharmaceutical Compositions for the Treatment of Viral Infections” (priority 2008, published 2010) can be followed below.

Several values for one entry are separate records, joined by “and”; a condition that tells them apart may be missing. Equal values may be shown once.

The subject of this data set is rat primary hepatocytes. Kind of data set: Metabolic disposition of [^14C]-Compound 1 and [^14C]-2′-C-methyl guanosine in rat primary hepatocytes (incubation medium, cellular extracts, nucleotide levels). In kind it is in vitro ADME, Sprague Dawley rat. The protocol: Primary hepatocytes: Freshly isolated cells from animal and human liver were obtained in suspension on ice. Cells were pelleted by centrifugation at 70-75×g (rat) or 95-90×g (monkey and human) and resuspended at 0.8 million cells per mL of platting medium (William's E supplemented with 5% FBS, 0.5% penicillin-streptomycin, 1% L-glutamine, 4 μg/mL insulin and 1 μM dexamethasone). Multi-well collagen I-coated plates (rat tail collagen type I; 12- or 6-well) were then seeded by addition of 1 mL (12-well; 0.8 million cells/well) or 2 mL (6-well; 1.6 million cells/well) of cell suspension. The plates were gently shaken to evenly distribute the cells and placed in an incubator at 37° C. for approximately 4 to 6 hours to allow cells to attach. Once cells were attached, the platting medium was removed and replaced with hepatocyte culture medium (William's E supplemented with penicillin-streptomycin, 1% L-glutamine, 1% insulin-transferrin-selenium and 0.1 μM dexamethasone). Cells were left overnight in an incubator at 37° C. to acclimatize to culture and the medium.
Hepatocyte incubations with radiolabeled Compound 1 and 2′-C-methyl guanosine, both labeled in the C-8 position of the guanine moiety, were conducted at a final volume of 2.0 mL hepatocyte culture medium/well ([…]). Culture medium from overnight incubation of cells was removed and replaced with fresh medium, pre-warmed to 37° C., containing 1 or 10 μM [^14C]-Compound 1 ([…]) or [^14C]-2′-C-methyl guanosine (127 DPM/μmol) from a stock solution in DMSO (final DMSO concentration was 0.1%) or 50% ethanol (final ethanol concentration was 0.2%). After 1, 4, 8 and 24 hours, 0.5-1.0 mL of incubation medium was removed and stored at −20° C. until analysis (described below). The remaining medium was discarded and cell monolayers were carefully washed two times with ice-cold PBS. Following the last wash, all PBS was carefully removed and 1.0 mL of extraction solution (ice-cold 70% methanol) added. Cells were scrapped off and suspended in the extraction solution, transferred to 2 mL polypropylene microfuge tubes and intracellular contents extracted overnight at −20° C.
Preliminary identification of putative metabolites was conducted by comparing the retention time of observed metabolites in incubation medium and cellular extracts with retention times obtained with chemically synthesized standards using the chromatography conditions described below. Further identification of 2′-C-methyl guanosine nucleotides (mono-, di- and triphosphate) was carried out by incubating cellular extract samples with alkaline phosphatase (10 units for 60 min at 37° C.) and comparing the HPLC retention times of the resulting nucleosides with that of authentic 2′-C-methyl guanosine.
Cellular extracts were prepared by centrifugation at 16,000 RCF using an Eppendorf microcentrifuge (Eppendorf, Model 5415D) for 10 min to remove cellular debris. An aliquot of 5-10 μL of the supernatant was added to 5 mL of EcoLite™ (MP, Irvine, Calif.) liquid scintillation cocktail and radioactivity measured by liquid scintillation counting (LSC) using a Beckman Coulter LS6500 multipurpose liquid scintillation counter (Beckman Instruments, Fullerton, Calif.). The remaining sample was then dried using a Labconco refrigerated centrivap concentrator (Labconco, Kansas City, Mo.). Dry extracts were reconstituted in 120 μL of HPLC-grade water and centrifuged at 16,000 RCF using an Eppendorf microcentrifuge for 10 min. Prior to HPLC analysis (described below), radioactivity of the concentrated extracts was measured by LSC using 5 μL aliquots. Extraction recovery was then determined by comparing total radioactivity in extracts before and after drying. The remaining extract was then analyzed by HPLC with online radioactivity detection using a Flow Scintillation Analyzer Radiomatic™ 515TR. Radioactivity in the separated components was quantified by integrating the peaks using Flo-One™ Software (Perkin Elmer Life Sciences). […]

Setting [1] is: rat hepatocytes (Rs458), 1 μM [^14C]-Compound 1, 1 h.
[2] abbreviates: rat hepatocytes (Rs458), 1 μM [^14C]-Compound 1, 8 h.
Setting [3] is: rat hepatocytes (Rs458), 1 μM [^14C]-Compound 1, 24 h.

Consider `C[C@@]1(O)[C@H](O)[C@@H](COP(=O)(O)NCc2ccccc2)O[C@H]1n1cnc2c(=O)[nH]c(N)nc21` [Compound 2, [(2R)-2-methyl-β-D-ribofuranosyl]guanine-N-benzylaminyl-5′-monophosphate], for which the “metabolites observed in cellular extracts (% of total radioactivity)” value by setting is: (rat hepatocytes (Rs448, Rs458), 10 μM [^14C]-Compound 1, 1 h, listed as Compd 2) 1.92% and 3.48%; (rat hepatocytes (Rs448, Rs458), 10 μM [^14C]-Compound 1, 8 h) “BLD”; (rat hepatocytes (Rs448, Rs458), 10 μM [^14C]-Compound 1, 24 h) “BLD”; under setting [1], 5.83%; under setting [2], “BLD”; under setting [3], “BLD”. Also, the “metabolites observed in medium (% of total radioactivity)” value reads like this: (rat hepatocytes (Rs458), 1 μM [^14C]-Compound 1, 0 h) 1.05%; under setting [1], 3.02%; under setting [2], 9.52%; under setting [3], 7% and 7.43%; (rat hepatocytes (lots Rs448, Rs458), 10 μM [^14C]-Compound 1, 0 h) 2.2% and 1.5%; (rat hepatocytes (lots Rs448, Rs458), 10 μM [^14C]-Compound 1, 1 h) 1.9% and 1.5%. Further, the “metabolites observed in medium (% of total radioactivity)” value runs as follows: (rat hepatocytes (lots Rs448, Rs458), 10 μM [^14C]-Compound 1, 4 h) 5.3% and 5.1%; (rat hepatocytes (lots Rs448, Rs458), 10 μM [^14C]-Compound 1, 8 h) 5.7% and 6.8%; (rat hepatocytes (lots Rs448, Rs458), 10 μM [^14C]-Compound 1, 24 h) 3.7% and 4.6%.
